From patent US11065232B2, “Dihydrotetrabenazine for the treatment of anxiety and psychoses” (ADEPTIO PHARMACEUTICALS LIMITED, priority 2017, dated 2021)

What was measured:
[1] = biological target: T1, alpha 1A (h) (antagonist radioligand) (Homo sapiens, UniProt P35348); assay: Receptor protein binding studies, alpha 1A
T1 sequence (P35348 1-466): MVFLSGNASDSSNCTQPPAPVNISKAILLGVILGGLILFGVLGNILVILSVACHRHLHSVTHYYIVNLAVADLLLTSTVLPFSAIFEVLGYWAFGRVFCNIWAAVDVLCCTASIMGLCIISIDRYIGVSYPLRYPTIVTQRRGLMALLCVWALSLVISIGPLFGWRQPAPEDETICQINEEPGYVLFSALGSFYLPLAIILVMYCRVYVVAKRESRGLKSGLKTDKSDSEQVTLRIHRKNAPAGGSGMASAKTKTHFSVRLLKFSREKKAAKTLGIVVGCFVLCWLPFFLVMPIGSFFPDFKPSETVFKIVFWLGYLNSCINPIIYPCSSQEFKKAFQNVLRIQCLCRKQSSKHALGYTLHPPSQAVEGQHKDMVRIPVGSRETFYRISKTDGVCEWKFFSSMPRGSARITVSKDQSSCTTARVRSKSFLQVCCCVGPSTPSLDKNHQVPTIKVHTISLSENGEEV
Source text: (§1) The four 3,11b trans-dihydrotetrabenazine isomers (+)-α, (−)-α, (+)-β and (−)-β were subjected to specific binding assays to test their ability to bind to the receptors and transporter proteins described below. The results are set out in Table 1

[2] = biological target: D3 (h) (antagonist radioligand) (Homo sapiens, UniProt P35462); assay: Receptor protein binding studies, D3
Source text: as §1

[3] = biological target: T2, D4.4 (h) (antagonist radioligand) (Homo sapiens, UniProt P21917); assay: Receptor protein binding studies, D4.4
T2 sequence (P21917 1-419): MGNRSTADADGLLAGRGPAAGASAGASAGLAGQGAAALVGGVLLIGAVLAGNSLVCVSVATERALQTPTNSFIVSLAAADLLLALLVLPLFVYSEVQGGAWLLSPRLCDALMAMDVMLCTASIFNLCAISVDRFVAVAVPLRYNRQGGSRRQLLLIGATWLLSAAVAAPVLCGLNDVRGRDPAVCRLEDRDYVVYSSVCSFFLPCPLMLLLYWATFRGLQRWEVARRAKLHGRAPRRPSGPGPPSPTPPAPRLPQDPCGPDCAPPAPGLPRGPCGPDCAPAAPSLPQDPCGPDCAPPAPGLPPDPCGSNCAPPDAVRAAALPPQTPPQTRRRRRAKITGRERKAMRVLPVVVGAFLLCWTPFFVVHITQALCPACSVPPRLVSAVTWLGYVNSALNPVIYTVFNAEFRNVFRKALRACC
Source text: as §1

Dopamine D2L = Dopamine D2L (Homo sapiens, UniProt P14416); assay: Receptor protein binding studies, Dopamine D2L
Source text: as §1

[4] = biological target: mu (MOP) (h) (agonist radioligand) (Homo sapiens, UniProt P35372); assay: Receptor protein binding studies, mu (MOP)
Source text: as §1

[5] = biological target: T3, 5-HT1A(h) (agonist radioligand) (Homo sapiens, UniProt P08908); assay: Receptor protein binding studies, 5-HT1A
T3 sequence (P08908 1-422): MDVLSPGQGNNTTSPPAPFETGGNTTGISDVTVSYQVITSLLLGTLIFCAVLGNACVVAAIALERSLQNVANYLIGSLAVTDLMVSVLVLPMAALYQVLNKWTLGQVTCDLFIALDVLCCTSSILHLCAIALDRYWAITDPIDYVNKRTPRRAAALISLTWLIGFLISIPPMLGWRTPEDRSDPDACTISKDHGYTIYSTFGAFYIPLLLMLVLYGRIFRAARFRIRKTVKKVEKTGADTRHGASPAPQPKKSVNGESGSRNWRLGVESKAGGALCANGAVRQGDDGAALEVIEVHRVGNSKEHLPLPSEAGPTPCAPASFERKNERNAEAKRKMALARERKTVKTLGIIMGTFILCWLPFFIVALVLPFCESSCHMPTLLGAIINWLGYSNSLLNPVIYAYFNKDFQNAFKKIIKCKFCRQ
Source text: as §1

[6] = biological target: T4, 5-HT2C (h) (agonist radioligand) (Homo sapiens, UniProt P28335); assay: Receptor protein binding studies, 5-HT2C
T4 sequence (P28335 33-458): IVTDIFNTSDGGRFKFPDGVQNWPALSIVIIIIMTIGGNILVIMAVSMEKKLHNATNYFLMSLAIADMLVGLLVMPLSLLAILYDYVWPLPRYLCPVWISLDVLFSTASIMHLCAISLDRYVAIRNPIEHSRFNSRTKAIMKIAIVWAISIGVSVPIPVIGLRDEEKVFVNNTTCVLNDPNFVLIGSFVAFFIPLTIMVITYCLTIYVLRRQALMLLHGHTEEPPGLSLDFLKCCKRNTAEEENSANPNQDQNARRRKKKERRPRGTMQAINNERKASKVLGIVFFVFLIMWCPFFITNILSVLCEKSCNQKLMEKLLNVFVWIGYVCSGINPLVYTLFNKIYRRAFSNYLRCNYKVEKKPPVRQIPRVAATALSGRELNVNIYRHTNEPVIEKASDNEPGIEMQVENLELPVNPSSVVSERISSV
Source text: as §1

5-HT6 (h) = 5-HT6 (h) (Homo sapiens, UniProt P50406); assay: Receptor protein binding studies, 5-HT6
Source text: as §1

[7] = biological target: Sigma 1 (h) (agonist radioligand) (Homo sapiens, UniProt Q99720); assay: Receptor protein binding studies, Sigma 1
Source text: as §1

[8] = biological target: hERG (membrane preparation) (antagonist radioligand) (Homo sapiens, UniProt Q12809); assay: Receptor protein binding studies, hERG
Source text: as §1

[9] = CONC 1.0E−05 (unit not given), 10 μM
[10] = CONC 1.0E−06 (unit not given), 1 μM

Chain of hERG (membrane preparation) (antagonist radioligand) (Q12809 whole entry): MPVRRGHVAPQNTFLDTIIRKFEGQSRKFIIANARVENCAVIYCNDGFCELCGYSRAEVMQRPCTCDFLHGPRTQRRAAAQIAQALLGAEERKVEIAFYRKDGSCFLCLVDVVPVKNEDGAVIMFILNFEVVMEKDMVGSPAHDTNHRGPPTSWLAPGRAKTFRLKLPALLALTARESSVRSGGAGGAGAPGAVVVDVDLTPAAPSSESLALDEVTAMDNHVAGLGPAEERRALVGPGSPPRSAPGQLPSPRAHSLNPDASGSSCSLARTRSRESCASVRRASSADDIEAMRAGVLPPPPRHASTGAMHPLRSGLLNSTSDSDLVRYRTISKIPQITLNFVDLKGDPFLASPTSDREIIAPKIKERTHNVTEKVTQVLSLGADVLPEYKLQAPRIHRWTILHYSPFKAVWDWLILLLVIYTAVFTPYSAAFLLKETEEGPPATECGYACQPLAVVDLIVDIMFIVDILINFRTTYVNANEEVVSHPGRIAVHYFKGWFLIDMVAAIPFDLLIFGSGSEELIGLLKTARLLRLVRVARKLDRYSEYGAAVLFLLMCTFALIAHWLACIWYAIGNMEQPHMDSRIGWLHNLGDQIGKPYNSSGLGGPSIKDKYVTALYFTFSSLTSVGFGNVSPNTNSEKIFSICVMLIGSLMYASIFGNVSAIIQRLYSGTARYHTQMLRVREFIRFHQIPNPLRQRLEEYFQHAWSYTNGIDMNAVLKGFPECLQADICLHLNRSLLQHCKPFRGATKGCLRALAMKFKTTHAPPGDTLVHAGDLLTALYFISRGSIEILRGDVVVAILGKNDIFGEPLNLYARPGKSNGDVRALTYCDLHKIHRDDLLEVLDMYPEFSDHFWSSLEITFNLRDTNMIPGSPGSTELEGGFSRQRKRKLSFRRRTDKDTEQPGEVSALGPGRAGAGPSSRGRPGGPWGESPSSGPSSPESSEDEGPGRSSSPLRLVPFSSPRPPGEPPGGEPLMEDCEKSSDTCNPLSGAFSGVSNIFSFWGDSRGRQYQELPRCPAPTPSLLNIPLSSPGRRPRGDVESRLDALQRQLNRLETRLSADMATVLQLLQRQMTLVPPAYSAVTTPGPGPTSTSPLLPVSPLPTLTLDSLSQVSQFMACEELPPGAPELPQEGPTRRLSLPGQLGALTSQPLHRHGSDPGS
Chain of D3 (h) (antagonist radioligand) (P35462 whole entry): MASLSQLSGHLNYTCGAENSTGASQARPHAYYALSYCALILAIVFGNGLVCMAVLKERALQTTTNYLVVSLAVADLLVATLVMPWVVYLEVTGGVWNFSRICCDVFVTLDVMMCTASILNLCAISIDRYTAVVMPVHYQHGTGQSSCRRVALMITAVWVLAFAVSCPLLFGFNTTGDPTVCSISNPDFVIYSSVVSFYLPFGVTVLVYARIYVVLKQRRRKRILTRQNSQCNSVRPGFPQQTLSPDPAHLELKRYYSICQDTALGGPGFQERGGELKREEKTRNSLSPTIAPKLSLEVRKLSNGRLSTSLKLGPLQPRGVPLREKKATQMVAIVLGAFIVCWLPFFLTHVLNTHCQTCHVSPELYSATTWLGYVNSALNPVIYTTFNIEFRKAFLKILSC
Chain of Dopamine D2L (P14416 whole entry): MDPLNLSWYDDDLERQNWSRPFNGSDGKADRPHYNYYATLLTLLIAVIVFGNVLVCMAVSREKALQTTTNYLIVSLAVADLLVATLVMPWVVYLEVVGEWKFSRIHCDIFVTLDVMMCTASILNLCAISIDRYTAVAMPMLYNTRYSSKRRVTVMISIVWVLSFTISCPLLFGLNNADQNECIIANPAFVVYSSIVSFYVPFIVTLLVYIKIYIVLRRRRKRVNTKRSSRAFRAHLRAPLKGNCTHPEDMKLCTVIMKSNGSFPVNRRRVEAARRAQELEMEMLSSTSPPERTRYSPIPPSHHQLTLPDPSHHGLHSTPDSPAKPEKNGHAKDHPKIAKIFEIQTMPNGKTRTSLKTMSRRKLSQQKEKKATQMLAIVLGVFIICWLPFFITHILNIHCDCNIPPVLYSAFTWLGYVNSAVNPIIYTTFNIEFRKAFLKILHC
Chain of Sigma 1 (h) (agonist radioligand) (Q99720 whole entry): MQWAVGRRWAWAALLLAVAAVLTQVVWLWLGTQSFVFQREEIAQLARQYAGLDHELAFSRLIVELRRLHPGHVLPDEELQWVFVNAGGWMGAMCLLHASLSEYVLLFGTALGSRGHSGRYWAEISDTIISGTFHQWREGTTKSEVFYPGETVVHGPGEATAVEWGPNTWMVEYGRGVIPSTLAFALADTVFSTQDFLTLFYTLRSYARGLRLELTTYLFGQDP
Chain of mu (MOP) (h) (agonist radioligand) (P35372 whole entry): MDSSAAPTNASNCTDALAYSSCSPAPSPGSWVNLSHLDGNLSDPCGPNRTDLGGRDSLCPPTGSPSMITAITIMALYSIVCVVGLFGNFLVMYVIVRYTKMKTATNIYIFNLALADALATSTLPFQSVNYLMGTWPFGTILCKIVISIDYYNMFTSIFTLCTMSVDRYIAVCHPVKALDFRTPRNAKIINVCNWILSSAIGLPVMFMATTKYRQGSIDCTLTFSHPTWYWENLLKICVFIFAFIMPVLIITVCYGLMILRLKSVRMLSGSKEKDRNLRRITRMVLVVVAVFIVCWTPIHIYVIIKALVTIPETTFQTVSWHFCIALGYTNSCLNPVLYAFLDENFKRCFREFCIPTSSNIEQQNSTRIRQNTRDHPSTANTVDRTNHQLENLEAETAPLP
Chain of 5-HT6 (h) (P50406 whole entry): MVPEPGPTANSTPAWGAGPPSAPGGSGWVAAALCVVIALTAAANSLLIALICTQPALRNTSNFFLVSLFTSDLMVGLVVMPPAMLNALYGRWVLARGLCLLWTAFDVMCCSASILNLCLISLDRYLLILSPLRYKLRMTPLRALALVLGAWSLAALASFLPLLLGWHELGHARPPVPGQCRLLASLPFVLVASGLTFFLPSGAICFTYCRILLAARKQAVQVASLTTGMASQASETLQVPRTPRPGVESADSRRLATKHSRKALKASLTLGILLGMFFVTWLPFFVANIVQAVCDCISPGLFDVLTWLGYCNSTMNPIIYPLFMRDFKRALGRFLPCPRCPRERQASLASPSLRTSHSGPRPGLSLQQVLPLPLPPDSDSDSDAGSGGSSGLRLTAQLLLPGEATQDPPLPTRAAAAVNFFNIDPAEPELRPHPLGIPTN

| Substance | % Inhibition of specific binding ([1]; CONC 1.0E−05 (unit not given)) [%] | % Inhibition of specific binding ([1]; CONC 1.0E−06 (unit not given)) [%] | % Inhibition of specific binding ([2]; CONC 1.0E−05 (unit not given)) [%] | % Inhibition of specific binding ([2]; CONC 1.0E−06 (unit not given)) [%] | activity at the dopamine D4 receptor (in words) [3] | % Inhibition of specific binding [3, 9] [%] | % Inhibition of specific binding [3, 10] [%] | % Inhibition of specific binding (Dopamine D2L; CONC 1.0E−05 (unit not given)) [%] | % Inhibition of specific binding (Dopamine D2L; CONC 1.0E−06 (unit not given)) [%] | % Inhibition of specific binding ([4]; CONC 1.0E−05 (unit not given)) [%] | % Inhibition of specific binding ([4]; CONC 1.0E−06 (unit not given)) [%] | % Inhibition of specific binding ([5]; CONC 1.0E−05 (unit not given)) [%] | % Inhibition of specific binding ([5]; CONC 1.0E−06 (unit not given)) [%] | % Inhibition of specific binding ([6]; CONC 1.0E−05 (unit not given)) [%] | % Inhibition of specific binding ([6]; CONC 1.0E−06 (unit not given)) [%] | % Inhibition of specific binding (5-HT6 (h); CONC 1.0E−05 (unit not given)) [%] | % Inhibition of specific binding (5-HT6 (h); CONC 1.0E−06 (unit not given)) [%] | % Inhibition of specific binding ([7]; CONC 1.0E−05 (unit not given)) [%] | % Inhibition of specific binding ([7]; CONC 1.0E−06 (unit not given)) [%] | % Inhibition of specific binding ([8]; CONC 1.0E−05 (unit not given)) [%] | other results |
| --- | --- | --- | --- | --- | --- | --- | --- | --- | --- | --- | --- | --- | --- | --- | --- | --- | --- | --- | --- | --- | --- |
| (+)-α-dihydrotetrabenazine [(+)-Alpha] | 12 | 7 | 2 | −14 | essentially inactive | −7 | −3 | 14 | 10 | 5 | 0 | 83 | 38 | 3 | −8 | 35 | −1 | 96 | 64 | 33 | % Inhibition of specific binding ([8]; CONC 1.0E−06 (unit not given)): 2% |
| (+)-β-dihydrotetrabenazine [(+)-Beta] | 33 | 2 | 12 | −18 | essentially inactive | 2 | −3 | 18 | 1 | 2 | 7 | 64 | 20 | −5 | 2 | 6 | 15 | 99 | 92 | 8 | % Inhibition of specific binding ([8]; CONC 1.0E−06 (unit not given)): 3% |
| (−)-α-dihydrotetrabenazine [(−)-Alpha] | 6 | 1 | 79 | 26 | significantly less active | 65 | 19 | 68 | 27 | 2 | 11 | 96 | 80 | 16 | 0 | 29 | 6 | 78 | 40 | 19 | % Inhibition of specific binding ([8]; CONC 1.0E−06 (unit not given)): 5% |
